Where a SMILES comes first, the peptide text is derived from it.
Key:
[1] = target: purified HLA-B7 (Homo sapiens, UniProt P01889); assay: Inhibition of binding of iodinated standard peptide to purified HLA-B7; conditions: iodinated endogenous B7 peptide […]
Protocol: Binding of synthetic peptides to purified HLA-B7. HPLC-purified test peptides were assayed for the ability to inhibit the binding of the iodinated endogenous B7 peptide […] (SEQ ID NO:4) to purified HLA-B7 as previously described (40). (♦), SMCY peptide […] (SEQ ID NO:1); (▪) SMCX peptide […] (SEQ ID NO:3); (Δ), […] (SEQ ID NO:5), an endogenous peptide bound to HLA-B7; (x) […] (SEQ ID NO.6), an endogenous peptide bound to HLA-A2.1 as the negative control.
The corresponding peptide derived from the sequence of the X chromosomal homolog, SMCX, has substitutions of A for S at position 3 and Q for R at position 8. […] Thus, the significant difference in the ability of the SMCY and SMCX peptides to sensitize targets for T cell recognition is almost entirely due to the fine specificity of the T cell receptor, rather than to differences in MHC binding affinities. The SMCX peptide is also present in naturally processed peptide extracts of HLA-B7, although its abundance is only 25% of that of the SMCY peptide (33). Based on all of this information, it is concluded that the peptide epitopes representing the HLA-B7 restricted H-Y antigen is derived from the protein encoded by SMCY, which is also true for the HLA-A2.1 recognized peptide, also encoded by SMCY.

[2] = test system: T2-B7 cells; assay: H-Y epitope reconstitution, 51Cr release assay with HLA-B7-restricted H-Y specific CTL clone 5W4; type: cell-based, human; conditions: T2-B7 cells sensitized with synthetic peptide, effector to target ratio 10 to 1, read-out: peptide concentration at which half-maximal lysis was achieved
From the text: Reconstitution of the H-Y epitope with HPLC fractionated peptides extracted from HLA-B7 molecules. (A) HLA-B7 molecules were immunoaffinity purified from […] H-Y positive JY cells. Peptides were eluted from B7 molecules with 10% acetic acid, pH 2.2, filtered through a 10 kD cut-off filter and fractionated on a C18 reverse phase column. Buffer A was 0.1% heptafluorobutyric acid (HFBA); buffer B was 0.1% HFBA in acetonitrile. The gradient consisted of 100% buffer A (0–20 mm), 0 to 12% buffer B (20 to 25 mm), and 12 to 50% buffer B (25 to 80 mm) at a flow rate of 200 μl/min. 60 fractions of 200 μl each were collected from 20 to 80 mm. […]
H-Y epitope reconstitution with synthetic peptides. […] Purity was established on an analytical RP column and the quantity of each peptide was confirmed by comparing the area of the peak with that of a standard peptide. […]
To isolate endogenously processed H-Y peptides, HLA-B7 molecules were purified by affinity chromatography from the H-Y positive, B lymphoblastoid cell line, JY (29). […] Although a single active peak of reconstituting activity was also observed from this separation (FIG. 1B, fraction 14, 15 and 16), it still contained more than 100 distinct peptide species, as assessed by electrospray ionization tandem mass spectrometry. […]

[3] = test system: HLA-A2.1 restricted H-Y specific T cell clones; assay: H-Y reconstitution assay with HLA-A2.1 restricted H-Y specific T cell clones R416 and 1R35; type: cell-based, human
From the text: HLA-A2 molecules were immunoaffinity purified from 10^10 DM cells. Peptides were eluted according to the methodology as described in legend to FIG. 1.
In the same manner as described above for the HLA-B7 restricted T-cell clone, the peptide recognized by two HLA-A2.1 T-cell clones was identified. In short the HLA-A2.1 restricted H-Y specific T cell clone R416 recognizes HPLC fraction 34, the HLA-A2.1 restricted H-Y specific T clone 1R35 recognizes HPLC fractions 36 and 39 (FIG. 6).

Row | IC50 [1] | Molecule | EC50 [2] | recognition by HLA-A2.1 restricted H-Y specific T cell clones [3]
1 | 140 nM | CC(C)C[C@H](NC(=O)[C@H](CCC(=O)O)NC(=O)[C@H](C)NC(=O)[C@H](CCC(N)=O)NC(=O)[C@H](C)NC(=O)[C@H](CCCCN)NC(=O)[C@H](CC(=O)O)NC(=O)[C@@H](NC(=O)[C@H](C)NC(=O)[C@@H]1CCCN1C(=O)[C@@H](N)CO)C(C)C)C(=O)O [SMCX peptide, reference compound] (H-SPAVDKAQAEL-OH) | – | –
2 | 34 nM | CC(C)C[C@H](NC(=O)[C@H](CCC(=O)O)NC(=O)[C@H](C)NC(=O)[C@H](CCCNC(=N)N)NC(=O)[C@H](C)NC(=O)[C@H](CCCCN)NC(=O)[C@H](CC(=O)O)NC(=O)[C@@H](NC(=O)[C@H](CO)NC(=O)[C@@H]1CCCN1C(=O)[C@@H](N)CO)C(C)C)C(=O)O [SMCY peptide] (H-SPSVDKARAEL-OH; N-terminus and C-terminus assumed) | 0.01 nM | –
3 | – | FIDSYICQV (listed as Homo sapiens) [SMCY-encoded peptide recognized by HLA-A2.1 restricted H-Y specific T cell clones] | – | recognize

Source: patent publication US7008922B2, “H-Y antigen” (Rijksuniversiteit te Leiden, priority 1995, dated 2006)
